Data published in ChEMBL document CHEMBL4007488, “Amphiphilic Indole Derivatives as Antimycobacterial Agents: Structure-Activity Relationships and Membrane Targeting Properties” (J Med Chem, 2017).

Assays:
Format in all cases: functional
[1] = test system: Mycobacterium tuberculosis variant bovis BCG; experiment: Ratio of WCC99.9 for Mycobacterium bovis BCG ATCC 35734 under low-oxygen tension conditions to MBC99.9 for Mycobacterium bovis BCG ATCC 35734
[2] = test system: Mycobacterium tuberculosis variant bovis BCG; experiment: Ratio of WCC99.9 for Mycobacterium bovis BCG ATCC 35734 under low-oxygen tension conditions to MIC90 for Mycobacterium bovis BCG ATCC 35734
[3] = test system: Mycobacterium tuberculosis variant bovis BCG; experiment: Ratio of MBC99.9 to MIC90 for Mycobacterium bovis BCG ATCC 35734

Q: How did the Ratio [1] turn out when `CCCCCCCCn1cc(CN2CCCCCC2)c2c(F)cccc21` was run?
A: The Ratio was greater than 2.

Q: What about the Ratio [2] of the same compound?
A: The Ratio was greater than 4.

Q: What about the Ratio [3] of the same compound?
A: The Ratio was 2.
